Laboratory results published in ChEMBL document CHEMBL4808240, “Design, synthesis and analysis of novel sphingosine kinase-1 inhibitors to improve oral bioavailability” (Bioorg Med Chem Lett, 2021).

The compounds below were run against Sphingosine kinase 1 (Homo sapiens, UniProt Q9NYA1) (assay: Inhibition of recombinant full length GST-tagged human SPHK1 expressed in baculovirus expression system incubated for 1 hr in presence of ATP by Alexa Fluor 647 tracer based Adapta assay).
Chain of Sphingosine kinase 1 (Q9NYA1 whole entry): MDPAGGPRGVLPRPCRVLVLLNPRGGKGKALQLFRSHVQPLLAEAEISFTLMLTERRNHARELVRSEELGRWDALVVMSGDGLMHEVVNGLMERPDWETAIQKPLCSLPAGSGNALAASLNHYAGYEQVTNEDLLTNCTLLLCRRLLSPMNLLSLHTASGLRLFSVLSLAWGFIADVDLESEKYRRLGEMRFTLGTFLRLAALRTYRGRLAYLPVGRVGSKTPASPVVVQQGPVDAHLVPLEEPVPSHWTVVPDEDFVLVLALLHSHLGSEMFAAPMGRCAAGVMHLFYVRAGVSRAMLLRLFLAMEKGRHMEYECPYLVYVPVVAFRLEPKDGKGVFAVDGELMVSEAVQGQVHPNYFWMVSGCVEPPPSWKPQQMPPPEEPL
In the case of `O=C(N/N=C/C1CCCCC1)c1cc(-c2ccc3ccccc3c2)[nH]n1`, the IC50 is reported as > 10 µM. In the case of `O=C(N/N=C/c1ccc(O)cc1)c1cc(-c2ccc3ccccc3c2)n[nH]1`, the IC50 is reported as > 10 µM. For `COc1cccc(/C=N/NC(=O)c2cc(-c3ccc4ccccc4c3)[nH]n2)c1`, the IC50 was > 10 µM. For `O=C(N/N=C/c1cccc(O)c1)c1cc(-c2ccc3ccccc3c2)n[nH]1`, the IC50 was > 10 µM. In the case of `COc1ccc(/C=N/NC(=O)c2cc(-c3ccc4ccccc4c3)[nH]n2)cc1OC`, the IC50 is reported as 6.55 µM. With `O=C(N/N=C/c1cccc2ccccc12)c1cc(-c2ccc3ccccc3c2)[nH]n1` the IC50 was > 10 µM. `O=C(N/N=C/c1ccc(Cl)cc1)c1cc(-c2ccc3ccccc3c2)[nH]n1` was tested, and the IC50 was > 10 µM. With `O=C(N/N=C/c1cccnc1)c1cc(-c2ccc3ccccc3c2)[nH]n1` the IC50 was > 10 µM. `O=C(N/N=C/c1ccccc1)c1cc(-c2ccc3ccccc3c2)[nH]n1` was tested, and the IC50 was > 10 µM. With `COc1ccc2ccccc2c1/C=N/NC(=O)c1cc(-c2ccc3ccccc3c2)[nH]n1` the IC50 was > 10 µM. For `COc1ccccc1/C=N/NC(=O)c1cc(-c2ccc3ccccc3c2)[nH]n1`, the IC50 was > 10 µM. With `O=C(N/N=C/c1ccccc1O)c1cc(-c2ccc3ccccc3c2)n[nH]1` the IC50 was > 10 µM. With `O=C(N/N=C/c1cccc([N+](=O)[O-])c1)c1cc(-c2ccc3ccccc3c2)[nH]n1` the IC50 was > 10 µM. In the case of `O=C(N/N=C/c1ccc2c(c1)OCCO2)c1cc(-c2ccc3ccccc3c2)[nH]n1`, the IC50 is reported as > 10 µM. In the case of `O=C(N/N=C/c1c(O)ccc2ccccc12)c1cc(-c2ccc3ccccc3c2)n[nH]1`, the IC50 is reported as > 10 µM. `COc1ccc(/C=N/NC(=O)c2cc(-c3ccc4ccccc4c3)[nH]n2)cc1` was tested, and the IC50 was > 10 µM.
